Laboratory results as given in patent publication US6440935B1, “Inhibition of eucaryotic pathogens and neoplasms and stimulation of fibroblasts and lymphocytes with lytic peptides” (priority 1987, dated 2002).
“And” between values parts separate entries of the source, which are not always exact repeats. Equal values may be shown once. Read-outs that look alike come from different tables or passages of the source. Residues, ends and D or L forms follow the SMILES beside them.

Assays:
[1] = EL-4 cell viability by trypan blue exclusion; format: cell-based; settings: one hour, 95% at 0 μM
Description: (§1) EL-4 lymphoma cells were suspended in RPMI 1640 at 5,000,000/ml with 500,000 cells per well. Various concentrations of cecropin SB-37 and Shiva 1 were added and the wells incubated at 37° C. in a 5% CO2 atmosphere for one hour. Viability was determined by microscopic observation for trypan blue exclusion.

[2] = EL-4 cytotoxicity by chromium release; format: cell-based; settings: for cytotoxicity at 100 µM: read-out: Percent Cytotoxicity
Description: (§2) The EL-4 cells were then incubated for 30 minutes in the presence of various peptides at different concentrations. Cytotoxicity was taken as a percentage of chromium released (measured in the culture supernatant) relative to the chromium released by EL-4 cells lysed by detergent.
(§3) Similar chromium release data were obtained using the same procedure with a 100 μM concentration of peptide, but with EL-4 cell concentrations of 2×10^6, 10^6, and 5×10^5 cells in 0.5 ml medium.
(§4) The chromium release data was also obtained by using the supernatant from unlabeled EL-4 cells cultured for 30 minutes in the presence of 100 μM peptide as medium for […] EL-4 cultured as described above. The percent cytotoxicity calculated as described above was 20.16 for cecropin SB-37, 19.73 for *cecropin SB-37, 41.96 for Shiva 1, and 106.67 for melittin.

[3] = tested on: EL-4 cells; experiment: EL-4 cytotoxicity by chromium release; format: cell-based; settings: 30 minutes, 10^6 EL-4 cells
Description: as §2, §3, §4

[4] = Viability by trypan blue exclusion, SP2 cells; format: cell-based, mouse; settings: 100 μM
Description: as §1
(§5) The procedure of Example 5 was repeated with 50 and 200 μM cecropin SB-37 using SP2 mouse lymphoma cells, KG-1 human leukemia cells, Daudi human Burkitt's lymphoma cells, non-adherent normal human lymphocytes and adherent 3T3 […] fibroblasts. Viability was determined by microscopic observation for trypan blue exclusion.
(§6) This procedure was repeated with 100 μM cecropin SB-37 using non-adherent normal human lymphocytes, Daudi human Burkitt's lymphoma cells, KG-1 human leukemia cells, U937 human monocytic leukemia cells, and SP2 murine myeloma cells, and determining viability by the trypan blue exclusion method at 15, 30 and 60 minutes following addition of the peptide.

[5] = tested on: SP2 mouse lymphoma cells; experiment: Viability by trypan blue exclusion, SP2 cells; format: cell-based
Description: as §1, §5, §6

[6] = Viability by trypan blue exclusion, KG-1 cells; format: cell-based, human; settings: 100 μM
Description: as §1, §5, §6

[7] = tested on: KG-1 human leukemia cells; experiment: Viability by trypan blue exclusion, KG-1 cells; format: cell-based
Description: as §1, §5, §6

[8] = Viability by trypan blue exclusion, Daudi cells; format: cell-based, human; settings: 100 μM
Description: as §1, §5, §6

[9] = tested on: Daudi human Burkitt's lymphoma cells; experiment: Viability by trypan blue exclusion, Daudi cells; format: cell-based
Description: as §1, §5, §6

[10] = Viability by trypan blue exclusion, normal lymphocytes; format: cell-based, human; settings: 100 μM
Description: as §1, §5, §6

[11] = tested on: non-adherent normal human lymphocytes; experiment: as above; format: cell-based
Description: as §1, §5, §6

[12] = tested on: adherent 3T3 human fibroblasts; experiment: Viability by trypan blue exclusion, 3T3 fibroblasts; format: cell-based
[13] = Viability by trypan blue exclusion, U937 cells; format: cell-based, human
Description: as §1, §6

[14] = In vivo screening on mice; design: species or system BALB/C mice; settings: for WBC Count: 110 mg/kg per day i.m. for 6 days, Mouse 1, 2, 3
Description: Nine BALB/C mice, 4 to 5 weeks of age, maintained on commercial rodent ration fed ad libidum and in general good health were each inoculated with 1.76 mg/day of cecropin SB-37 in PBS intramuscularly for 4 consecutive days. No other change was made in diet or conditions. […] At the end of the fourth day, three were sacrificed and examined. After 30 days, three were given an additional 1.76 mg of cecropin SB-37 each.
The remaining mice were all sacrificed 7 days after the last inoculation.
Following the above procedure, three BALB/C mice were given 110 mg/kg of body weight per day of cecropin SB-37 injected intramuscularly in balanced salt solution for 6 days. Ten days after the last inoculation, the mice were again injected intramuscularly with 110 mg/kg of body weight with cecropin SB-37. […] All three mice were sacrificed 7 days after the final inoculation and tissues were examined.

[15] = tested on: Pseudomonas syringae pv. tabaci; experiment: Plant pathogen LD50 in cecropin SB-37/lysozyme; format: cell-based; settings: incubation at 30° C.
[16] = tested on: Erwinia caratovora subsp. carotova; experiment: Plant pathogen LD50 in cecropin SB-37/lysozyme; format: cell-based; settings: incubation at 30° C.
[17] = tested on: Xanthomonas campestris pv. campestris; experiment: Plant pathogen LD50 in cecropin SB-37/lysozyme; format: cell-based; settings: incubation at 30° C.
[18] = tested on: Plasmodium falciparum in human red blood cells; settings: 24-hour period, relative to untreated infected red blood cells
[19] = tested on: Pseudomonas solanacearum
[20] = S. intermedius 19930 viability in lytic peptide/lysozyme; settings: Viability (%), lysozyme at ten times

**Q.** Which viability ([1]; 10 μM) does the source give for CC[C@H](C)[C@H](NC(=O)CNC(=O)[C@H](CC(N)=O)NC(=O)[C@H](CCCNC(=N)N)NC(=O)[C@@H](NC(=O)[C@H](CC(N)=O)NC(=O)[C@H](CCCNC(=N)N)NC(=O)CNC(=O)[C@H](CCSC)NC(=O)[C@H](CCCCN)NC(=O)[C@H](CCC(=O)O)NC(=O)[C@@H](NC(=O)[C@H](CCCCN)NC(=O)[C@H](CCCCN)NC(=O)[C@H](Cc1ccccc1)NC(=O)[C@@H](NC(=O)[C@H](CCCCN)NC(=O)[C@H](Cc1c[nH]c2ccccc12)NC(=O)[C@H](CCCCN)NC(=O)[C@@H]1CCCN1C(=O)[C@@H](N)CCSC)C(C)C)[C@@H](C)CC)[C@@H](C)CC)C(=O)N[C@H](C(=O)N[C@@H](CCCCN)C(=O)N[C@@H](C)C(=O)NCC(=O)N1CCC[C@H]1C(=O)N[C@@H](C)C(=O)N[C@H](C(=O)N[C@@H](C)C(=O)N[C@H](C(=O)N[C@@H](CC(C)C)C(=O)NCC(=O)N[C@@H](CCC(=O)O)C(=O)N[C@@H](C)C(=O)N[C@@H](CCCCN)C(=O)N[C@@H](C)C(=O)N[C@@H](CC(C)C)C(=O)NCC(N)=O)C(C)C)[C@@H](C)CC)C(C)C [Cecropin SB-37] (H-MPKWKVFKKIEKMGRNIRNGIVKAGPAIAVLGEAKALG-NH2) here?
**A.** 90%

**Q.** And the viability ([1]; 25 μM)?
**A.** 90%

**Q.** And the viability ([1]; 50 μM)?
**A.** 75%

**Q.** And the viability ([1]; 100 μM)?
**A.** 20%

**Q.** And the cytotoxicity at 100 µM ([2]; 2 × 10^6 cells per 0.5 ml)?
**A.** 93.8%

**Q.** What about the cytotoxicity at 100 µM ([2]; 5 × 10^5 cells per 0.5 ml) of the same compound?
**A.** 99.6%

**Q.** And the cytotoxicity at 100 µM ([2]; 10^6 cells per 0.5 ml)?
**A.** 89.2%

**Q.** And the cytotoxicity ([2]; supernatant from unlabeled EL-4 cells cultured 30 minutes with 100 μM peptide used as medium for labeled EL-4, read-out: percent cytotoxicity)?
**A.** 20.2%

**Q.** And the “Percent Cytotoxicity (chromium release vs detergent-lysed cells)” value (from here on “Percent Cytotoxicity”) ([3]; 10 μM)?
**A.** 0.0%

**Q.** And the “Percent Cytotoxicity” value ([3]; 25 μM)?
**A.** 4.49%

**Q.** And the “Percent Cytotoxicity” value ([3]; 50 μM)?
**A.** 6.63%

**Q.** What about the “Percent Cytotoxicity” value ([3]; 100 μM) of the same compound?
**A.** 36.42%

**Q.** What about the viability at 100 µM ([4]; 15 min.) of the same compound?
**A.** 100%

**Q.** What about the viability at 100 µM ([4]; 30 min.) of the same compound?
**A.** 40%

**Q.** What about the viability at 100 µM ([4]; 60 min.) of the same compound?
**A.** 10%

**Q.** And the “Survival (percent)” value ([5]; 50 μM)?
**A.** 20%

**Q.** What about the “Survival (percent)” value ([5]; 100 μM) of the same compound?
**A.** 5%

**Q.** And the viability at 100 µM ([6]; 15 min.)?
**A.** 50%

**Q.** And the viability at 100 µM ([6]; 30 min.)?
**A.** 75%

**Q.** What about the viability at 100 µM ([6]; 60 min.) of the same compound?
**A.** 50%

**Q.** What about the “Survival (percent)” value ([7]; 50 μM) of the same compound?
**A.** 95%

**Q.** What about the “Survival (percent)” value ([7]; 100 μM) of the same compound?
**A.** 0%

**Q.** And the viability at 100 µM ([8]; 15 min.)?
**A.** 70%

**Q.** What about the viability at 100 µM ([8]; 30 min.) of the same compound?
**A.** 70%

**Q.** And the viability at 100 µM ([8]; 60 min.)?
**A.** 65%

**Q.** What about the “Survival (percent)” value ([9]; 50 μM) of the same compound?
**A.** 85%

**Q.** And the “Survival (percent)” value ([9]; 100 μM)?
**A.** 0%

**Q.** What about the viability at 100 µM ([10]; 15 min.) of the same compound?
**A.** 75%

**Q.** What about the viability at 100 µM ([10]; 30 min.) of the same compound?
**A.** 80%

**Q.** And the viability at 100 µM ([10]; 60 min.)?
**A.** 85%

**Q.** What about the “Survival (percent)” value ([11]; 50 μM) of the same compound?
**A.** 100%

**Q.** And the “Survival (percent)” value ([11]; 100 μM)?
**A.** 30%

**Q.** And the “Survival (percent)” value ([12]; 50 μM)?
**A.** 80%

**Q.** And the “Survival (percent)” value ([12]; 100 μM)?
**A.** 80%

**Q.** What about the viability at 100 µM ([13]; 15 min.) of the same compound?
**A.** 35%

**Q.** And the viability at 100 µM ([13]; 30 min.)?
**A.** 25%

**Q.** What about the viability at 100 µM ([13]; 60 min.) of the same compound?
**A.** 15%

**Q.** And the adverse reactions ([14]; 1.76 mg/day intramuscularly, 4 consecutive days, observed twice daily)?
**A.** no adverse reactions were noted

**Q.** And the “antibody to cecropin SB-37” value ([14]; 1.76 mg/day regimen)?
**A.** None of these mice produced detectable levels of antibody

**Q.** And the “examination of organs and tissues” value ([14]; 1.76 mg/day regimen, sacrificed 7 days after the last inoculation)?
**A.** no gross pathological changes were present

**Q.** And the “WBC Count” value ([14]; Day 1)?
**A.** 13 10^3/ml and 9 10^3/ml

**Q.** What about the “WBC Count” value ([14]; Day 3) of the same compound?
**A.** 14 10^3/ml and 9 10^3/ml and 10 10^3/ml

**Q.** What about the “WBC Count” value ([14]; Day 5) of the same compound?
**A.** 15 10^3/ml and 19 10^3/ml

**Q.** And the “WBC Count” value ([14]; Day 8)?
**A.** 21 10^3/ml

**Q.** What about the “WBC Count” value ([14]; Day 11) of the same compound?
**A.** 23 10^3/ml and 20 10^3/ml

**Q.** What about the adverse effects ([14]; 110 mg/kg per day intramuscularly for 6 days, again ten days later) of the same compound?
**A.** no adverse effects

**Q.** And the “cecropin SB-37 antibodies” value ([14]; 110 mg/kg regimen)?
**A.** No cecropin SB-37 antibodies were detected

**Q.** And the examination of tissues ([14]; 110 mg/kg regimen, sacrificed 7 days after the final inoculation)?
**A.** enlarged spleens but were otherwise unremarkable

**Q.** What about the adverse reactions ([14]; additional 1.76 mg after 30 days) of the same compound?
**A.** No adverse reactions were noted

**Q.** And the LD50 [15]?
**A.** 5.20 µM

**Q.** What about the LD50 [16] of the same compound?
**A.** 1.48 µM

**Q.** What about the LD50 [17] of the same compound?
**A.** 0.57 µM

**Q.** And the viability?
**A.** 0%

**Q.** And the viability at 0.01 µM?
**A.** 100%

**Q.** And the viability at 0.1 µM?
**A.** 79.4%

**Q.** What about the viability at 1 µM of the same compound?
**A.** 48.8%

**Q.** What about the viability at 5 µM of the same compound?
**A.** 38.5%

**Q.** What about the viability at 7.5 µM of the same compound?
**A.** 0.7%

**Q.** And the “LD50 (concentration for 50% reduction in 3H-hypoxanthine uptake)” value [18]?
**A.** about 22.5 μM

**Q.** What about the LD50 [19] of the same compound?
**A.** 64.0 µM

**Q.** What about the viability at 0.01 µM ([20]; peptide concentration 0.01 μM) of the same compound?
**A.** 100%

**Q.** What about the viability at 0.1 µM ([20]; peptide concentration 0.1 μM) of the same compound?
**A.** 94.7%

**Q.** What about the viability at 0.5 µM ([20]; peptide concentration 0.5 μM) of the same compound?
**A.** 69.4%

**Q.** And the viability at 1 µM ([20]; peptide concentration 1.0 μM)?
**A.** 42.5%

**Q.** And the viability at 5 µM ([20]; peptide concentration 5.0 μM)?
**A.** 36.1%

**Q.** And the viability ([20]; peptide concentration 10. μM)?
**A.** 5.6%

**Q.** What about the viability ([20]; peptide concentration 50. μM) of the same compound?
**A.** 0%
